Reference: PubChem BioAssay (NCI)
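Dose response: 5 concentrations. Exposure: 48 h. Format: 96-well plates. Endpoint: linear interpolation; highest concentration if not reached. GI50 marks 50% less growth. TGI denotes the concentration required for complete inhibition of growth.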

Experiments:
Test in all cases: DTP human tumour cell line panel, 48 h
HOP-92 NSCLC = test system: HOP-92 NSCLC
SF-268 CNS = test system: SF-268 CNS
PC-3 prostate = test system: PC-3 prostate
LOX IMVI melanoma = test system: LOX IMVI melanoma
T-47D breast = test system: T-47D breast
A549 NSCLC = test system: A549 NSCLC
CCRF-CEM leukemia = test system: CCRF-CEM leukemia
RPMI-8226 leukemia = test system: RPMI-8226 leukemia
SK-MEL-28 melanoma = test system: SK-MEL-28 melanoma
TK-10 renal = test system: TK-10 renal
A498 renal = test system: A498 renal
NCI-H522 lung = test system: NCI-H522 lung
786-0 renal = test system: 786-0 renal
UACC-62 melanoma = test system: UACC-62 melanoma
OVCAR-3 ovarian = test system: OVCAR-3 ovarian
SK-MEL-2 melanoma = test system: SK-MEL-2 melanoma
SR leukemia = test system: SR leukemia
SNB-19 CNS = test system: SNB-19 CNS
KM12 colon = test system: KM12 colon
MCF7 breast = test system: MCF7 breast
OVCAR-8 ovarian = test system: OVCAR-8 ovarian
HOP-62 NSCLC = test system: HOP-62 NSCLC
SK-MEL-5 melanoma = test system: SK-MEL-5 melanoma
MDA-MB-231 breast = test system: MDA-MB-231 breast
U251 CNS = test system: U251 CNS
SNB-75 CNS = test system: SNB-75 CNS
HL-60(TB) leukemia = test system: HL-60(TB) leukemia
SN12C renal = test system: SN12C renal
COLO 205 colon = test system: COLO 205 colon
NCI-H23 lung = test system: NCI-H23 lung
HCC-2998 colon = test system: HCC-2998 colon
MALME-3M melanoma = test system: MALME-3M melanoma
HCT-116 colon = test system: HCT-116 colon
SF-295 CNS = test system: SF-295 CNS
NCI/ADR-RES ovarian = test system: NCI/ADR-RES ovarian
UO-31 renal = test system: UO-31 renal
ACHN renal = test system: ACHN renal
RXF 393 renal = test system: RXF 393 renal
IGROV1 ovarian = test system: IGROV1 ovarian
HCT-15 colon = test system: HCT-15 colon
CAKI-1 renal = test system: CAKI-1 renal
MOLT-4 leukemia = test system: MOLT-4 leukemia
OVCAR-5 ovarian = test system: OVCAR-5 ovarian
EKVX NSCLC = test system: EKVX NSCLC
HS 578T breast = test system: HS 578T breast
HT29 colon = test system: HT29 colon
OVCAR-4 ovarian = test system: OVCAR-4 ovarian
SF-539 CNS = test system: SF-539 CNS
NCI-H460 lung = test system: NCI-H460 lung
DU-145 prostate = test system: DU-145 prostate
SW-620 colon = test system: SW-620 colon
BT-549 breast = test system: BT-549 breast
MDA-MB-435 = test system: MDA-MB-435
M14 melanoma = test system: M14 melanoma
UACC-257 melanoma = test system: UACC-257 melanoma
K-562 leukemia = test system: K-562 leukemia
SK-OV-3 ovarian = test system: SK-OV-3 ovarian

## N#Cc1cnc2cc(OC[C@@H](O)CO)c(NC(=O)CC3CSSC3)cc2c1Nc1ccc(OCc2cccc(F)c2)c(Cl)c1
HOP-92 NSCLC
  GI50: 919 nM
  TGI: 2060 nM
SF-268 CNS
  GI50: 81.4 nM
  TGI: 771 nM
PC-3 prostate
  GI50: 88.8 nM
  TGI: 198 nM
LOX IMVI melanoma
  GI50: 2170 nM
  TGI: 3080 nM
T-47D breast
  GI50: 646 nM
  TGI: 1590 nM
A549 NSCLC
  GI50: 842 nM
  TGI: 1720 nM
CCRF-CEM leukemia
  GI50: 60.3 nM
  TGI: 160 nM
RPMI-8226 leukemia
  GI50: 557 nM
  TGI: 1740 nM
SK-MEL-28 melanoma
  GI50: 63.2 nM
  TGI: 136 nM
TK-10 renal
  GI50: 772 nM
  TGI: 1510 nM
A498 renal
  GI50: 848 nM
  TGI: 1920 nM
NCI-H522 lung
  GI50: 336 nM
  TGI: 973 nM
786-0 renal
  GI50: 1380 nM
  TGI: 4570 nM
UACC-62 melanoma
  GI50: 380 nM
  TGI: 1080 nM
OVCAR-3 ovarian
  GI50: 284 nM
  TGI: 913 nM
SK-MEL-2 melanoma
  GI50: 117 nM
  TGI: 286 nM
SR leukemia
  GI50: 40.8 nM
  TGI: 275 nM
SNB-19 CNS
  GI50: 381 nM
  TGI: 1180 nM
KM12 colon
  GI50: 112 nM
  TGI: 251 nM
MCF7 breast
  GI50: 85.7 nM
  TGI: 182 nM
OVCAR-8 ovarian
  GI50: 651 nM
  TGI: 1850 nM
HOP-62 NSCLC
  GI50: 311 nM
  TGI: 896 nM
SK-MEL-5 melanoma
  GI50: 743 nM
  TGI: 1430 nM
MDA-MB-231 breast
  GI50: 104 nM
  TGI: 237 nM
U251 CNS
  GI50: 777 nM
  TGI: 1590 nM
SNB-75 CNS
  GI50: 738 nM
  TGI: 1580 nM
HL-60(TB) leukemia
  GI50: 589 nM
  TGI: 1470 nM
SN12C renal
  GI50: 144 nM
  TGI: 490 nM
COLO 205 colon
  GI50: 813 nM
  TGI: 1630 nM
NCI-H23 lung
  GI50: 614 nM
  TGI: 1510 nM
HCC-2998 colon
  GI50: 164 nM
  TGI: 506 nM
MALME-3M melanoma
  GI50: 215 nM
  TGI: 938 nM
HCT-116 colon
  GI50: 88.2 nM
  TGI: 200 nM
SF-295 CNS
  GI50: 880 nM
  TGI: 1780 nM
NCI/ADR-RES ovarian
  GI50: 2190 nM
  TGI: 3160 nM
UO-31 renal
  GI50: 1630 nM
  TGI: 5500 nM
ACHN renal
  GI50: 1100 nM
  TGI: 2870 nM
RXF 393 renal
  GI50: 643 nM
  TGI: 1440 nM
IGROV1 ovarian
  GI50: 288 nM
  TGI: 1110 nM
HCT-15 colon
  GI50: 1630 nM
  TGI: 6510 nM
CAKI-1 renal
  GI50: 6340 nM
  TGI: 18900 nM
MOLT-4 leukemia
  GI50: 73.6 nM
  TGI: 174 nM
OVCAR-5 ovarian
  GI50: 797 nM
  TGI: 1590 nM
EKVX NSCLC
  GI50: 265 nM
  TGI: 1180 nM
HS 578T breast
  GI50: 105 nM
  TGI: 282 nM
HT29 colon
  GI50: 225 nM
  TGI: 759 nM
OVCAR-4 ovarian
  GI50: 128 nM
  TGI: 381 nM
SF-539 CNS
  GI50: 725 nM
  TGI: 1470 nM
NCI-H460 lung
  GI50: 104 nM
  TGI: 261 nM
DU-145 prostate
  GI50: 131 nM
  TGI: 398 nM
SW-620 colon
  GI50: 216 nM
  TGI: 870 nM
BT-549 breast
  GI50: 155 nM
  TGI: 523 nM
MDA-MB-435
  GI50: 113 nM
  TGI: 303 nM
M14 melanoma
  GI50: 82.8 nM
  TGI: 175 nM
UACC-257 melanoma
  GI50: 195 nM
  TGI: 829 nM
K-562 leukemia
  GI50: 94.5 nM
  TGI: 207 nM
SK-OV-3 ovarian
  GI50: 567 nM
  TGI: 1270 nM
